Measured values from publication PMC12844237, “A Novel Quinolone JH62 (E-2-(Tridec-4-en-1-yl)-quinolin-4(1H)-one) from Pseudomonas aeruginosa Exhibits Potent Anticancer Activity” (Microorganisms, 2025).

Tests used:
[1] = tested on: WI-38: human lung fibroblast cell lines; experiment: WST-1 cell viability, WI-38; assay type: cell-based; details: WI-38, non-cancer cell line
Source text: (§1) Different cells were utilized as follows: MEF: murine embryonic fibroblast (RRID: CVCL_L690); AML12: mouse liver cell lines (RRID: CVCL_0140); WI-38: human lung fibroblast cell lines (RRID: CVCL_0579); THLE-2: human liver epithelial cell lines (RRID: CVCL_3803); A549: human lung cancer cell lines (RRID: CVCL_0023); HEPG2: human liver cancer cell lines (RRID: CVCL_0027); HEP3B: human hepatoma cell lines (RRID: CVCL_0326); BxPC3: human pancreatic cancer cell lines (RRID: CVCL_0186); U87: human primary glioblastoma cell lines (RRID: CVCL_0022); DU145: human prostate cancer cell lines (RRID: CVCL_0105); MCF7: human breast cancer cell lines (RRID: CVCL_0031); HeLa: human cervical cancer cell lines (RRID: CVCL_0030); HCT116: human colon cancer cell lines (RRID: CVCL_0291). Cells were maintained in Dulbecco’s modified Eagle’s medium (DMEM, Gibco) supplemented with L-glutamine (Lonza) (2 mM), 10% fetal bovine serum (FBS, Hyclone), 1 × non-essential amino acids, and sodium pyruvate (1 mM). THLE-2 cells were maintained in THLE-2 Cell Complete Medium (Zhong Qiao Xin Zhou, Shanghai, China). Cells were incubated at 37 °C in a humidified incubator with 5% CO2. […]
(§2) Cell viability was assessed using the WST-1 assay, based on a previously reported method with slight modifications. […] Absorbance at OD450 was measured using a microplate reader (Synergy H1; BioTek Instruments, Winooski, VT, USA).

A549 cells = experiment: Mitochondria JC-1 staining (mitochondrial membrane potential); assay type: cell-based, human; details: A549, 25 μM, red fluorescence decreasing within 2–3 h, lowest by 4 h
Protocol: Mitochondrial membrane potential and mitochondria localization were assessed by JC-1 and MitoTracker staining based on previously published methods. A549 cells were cultured at 37 °C and 5% CO2 in Dulbecco’s modified Eagle’s medium (DMEM), supplemented with 10% heat-inactivated FBS (Thermo Fisher Scientific, Waltham, MA, USA) and L-Glutamine (Thermo Fisher Scientific, Waltham, MA, USA) (2 mM). An aliquot of 1 mL of JH62 (25 μM) solution was added to the cell cultures. […] Cells were washed with dilution buffer, and photos were taken using a microscope. For MitoTracker staining, cells grown on 12 mm diameter round glass coverslips in 24-well plates were incubated with MitoTracker Red diluted 1:2000 or 1:20,000 from a stock solution (1 mM) in culture medium for 45 min at 37 °C. Cells were then washed with PBS and fixed with ice-cold 3.2% paraformaldehyde in PBS for 20 min at room temperature. After washing, coverslips were mounted on glass slides using an appropriate mounting medium. […]
In cancer cells, mitochondria serve as central organelles for energy production and survival, critically influencing cell viability, immune evasion, tumor progression, and therapy resistance. […] We used the potential-sensitive fluorescent probe JC-1, which emits green fluorescence as a monomer at low concentrations and forms red-fluorescent aggregates in mitochondria with intact ΔΨm.

[2] = tested on: A549 lung cancer cell colonies; experiment: Cell colony formation assay; assay type: cell-based, human; details: compared to the control group
Source text: The cell colony formation assay, an in vitro method used to evaluate the proliferative capacity of cancer cells, was employed.

[3] = tested on: MCF7: human breast cancer cell lines; experiment: WST-1 cell viability, MCF7; assay type: cell-based; details: MCF7 (breast) cancer cell line
Source text: as §1, §2

[4] = tested on: U87: human primary glioblastoma cell lines; experiment: WST-1 cell viability, U87; assay type: cell-based; details: U87 (glioblastoma) cancer cell line
Source text: as §1, §2

[5] = tested on: HCT116: human colon cancer cell lines; experiment: WST-1 cell viability, HCT116; assay type: cell-based; details: HCT-116, HCT116 (colon) cancer cell line
Source text: as §1, §2

[6] = tested on: non-cancer cells (MEF, AML12, WI-38, and THLE-2); experiment: WST-1 cell viability, panel of non-cancer cells; assay type: cell-based; details: across non-cancer cells (MEF, AML12, WI-38, and THLE-2)
Protocol: (§3) Cell viability was assessed using the WST-1 assay, based on a previously reported method with slight modifications. Briefly, cells were seeded at 1 × 10^4 cells per well in 96-well plates and then treated with different doses of JH62 or DOX for 0–72 h. The cells used included non-cancer cells (MEF, AML12, WI-38, and THLE-2) and cancer cells (A549, HEPG2, HEP3B, BxPC3, U87, DU145, MCF7, HeLa, and HCT116). The WST-1 reagent (Roche, Shanghai, China) was added to each well (10% vol/vol final concentration), followed by incubation for 3 h at 37 °C. Absorbance at OD450 was measured using a microplate reader (Synergy H1; BioTek Instruments, Winooski, VT, USA).

[7] = tested on: MEF: murine embryonic fibroblast; experiment: WST-1 cell viability, MEF; assay type: cell-based; details: Mus musculus, non-cancer cell line
Source text: as §1, §2

[8] = tested on: BxPC3: human pancreatic cancer cell lines; experiment: WST-1 cell viability, BxPC3; assay type: cell-based; details: BXPC-3, BxPC3 (pancreatic) cancer cell line
Source text: as §1, §2

[9] = tested on: HeLa: human cervical cancer cell lines; experiment: WST-1 cell viability, HeLa; assay type: cell-based; details: HeLa (cervical) cancer cell line
Source text: as §1, §2

[10] = tested on: DU145: human prostate cancer cell lines; experiment: WST-1 cell viability, DU145; assay type: cell-based; details: DU-145, DU145 (prostate) cancer cell line
Source text: as §1, §2

LC3B in A549 cells = experiment: Immunofluorescence staining for LC3B; assay type: cell-based, human; details: A549, JH62 over 2–24 h
Source text: We next investigated whether autophagy contributes to JH62-induced cell death.

[11] = tested on: AML12: mouse liver cell lines; experiment: WST-1 cell viability, AML12; assay type: cell-based; details: AML12, non-cancer cell line
Source text: as §1, §2

[12] = tested on: HEP3B: human hepatoma cell lines; experiment: WST-1 cell viability, HEP3B; assay type: cell-based; details: HEP3B (liver) cancer cell line
Source text: as §1, §2

[13] = tested on: HEPG2: human liver cancer cell lines; experiment: WST-1 cell viability, HEPG2; assay type: cell-based; details: HEPG2 (liver) cancer cell line
Source text: as §1, §2

cancer cell lines = experiment: WST-1 cell viability, panel of cancer cell lines; assay type: cell-based; details: Homo sapiens; across the tested cancer cell lines
Protocol: as §3

SMILES: CCCCCCCC/C=C/CCCc1cc(=O)c2ccccc2[nH]1 [JH62, E-2-(tridec-4-en-1-yl)-quinolin-4(1H)-one]
- IC50 [1]: 44.1 ± 0.4 µM
- mitochondrial membrane potential (JC-1 red fluorescence) (A549 cells): disrupted the mitochondrial membrane potential
- reduced the number of A549 lung cancer cell colonies ([2]; 6.3 μM): 34%
- reduced the number of A549 lung cancer cell colonies ([2]; 12.5 μM): 71%
- IC50 [3]: 13.9 ± 1.3 µM
- IC50 [4]: 10 ± 0.2 µM
- IC50 [5]: 8.6 ± 0.1 µM
- IC50 [6]: > 25 µM
- IC50 [7]: 47.2 ± 4.8 µM
- IC50 [8]: 15 ± 0.4 µM
- IC50 [9]: 13.6 ± 2.7 µM
- IC50 [10]: 13.8 ± 3.3 µM
- LC3B puncta (autophagosome formation) (LC3B in A549 cells): progressively increased both the intensity and number of LC3B puncta
- IC50 [11]: 37.1 ± 0.7 µM
- IC50 [12]: 10.8 ± 0.4 µM
- IC50 [13]: 17.2 ± 0.6 µM
- IC50 (cancer cell lines): < 20 µM
